This note sets out measurements from patent US12122761B2, “2-azaspiro[3.4]octane derivatives as M4 agonists” (NOVARTIS AG, priority 2019, dated 2024).

Experiment [1] addresses T1, human cloned CHRM4 receptor (M4_CHO cells) (Homo sapiens, UniProt P08173).
T1 construct: expressed in transfected cells; host or cells: CHO-K1
T1 sequence (P08173 1-479): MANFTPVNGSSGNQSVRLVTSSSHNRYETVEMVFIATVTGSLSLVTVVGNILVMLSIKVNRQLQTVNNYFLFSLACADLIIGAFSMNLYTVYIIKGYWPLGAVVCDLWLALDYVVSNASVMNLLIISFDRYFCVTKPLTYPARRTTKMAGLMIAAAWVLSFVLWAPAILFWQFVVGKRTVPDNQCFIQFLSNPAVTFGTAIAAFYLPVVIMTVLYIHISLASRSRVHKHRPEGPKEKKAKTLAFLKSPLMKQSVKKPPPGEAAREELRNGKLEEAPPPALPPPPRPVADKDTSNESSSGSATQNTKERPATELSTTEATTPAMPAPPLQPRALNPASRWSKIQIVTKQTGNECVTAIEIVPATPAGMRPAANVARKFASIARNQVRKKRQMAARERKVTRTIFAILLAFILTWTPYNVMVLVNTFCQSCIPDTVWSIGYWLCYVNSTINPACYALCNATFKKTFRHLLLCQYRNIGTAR
As to the kind of experiment: CHRM4 Ca++ Flux Assay (agonist mode, FDSS 7000EX). In kind it is cell-based. The conditions noted are these: for M4 FDSS PA: Percent Activity; for EC50: geometric mean if tested more than once, read-out: M4 FDSS EC50. Here is the method: (§1) The above examples were characterized by measuring the intracellular mobilization of Ca++ ions caused by signaling events mediated by the receptor. The Intra-cellular Calcium flux levels were captured by the highly sensitive Ca++ indicator, Calcium Assay Kit (BD Biosciences, Catalog Number 640178). The fluorescent activity from all receptors were monitored by the fluorescent imager, FDSS 7000EX (Hamamatsu) over a span of 3 minutes.
CHO-K1 cells stably expressing the human cloned CHRM4 receptor (M4_CHO cells) were grown and maintained in a monolayer culture with F12/HAM (Life Technologies) supplemented with 10% Fetal Bovine Serum, 1× Pen-Strep, and 0.4 mg/mL Geneticin in a humidified atmosphere (5% CO2) at 37° C. The cultures were grown to 80-90% confluency in T150 flasks (Corning) and washed with 1×DPBS then lifted with 0.05% Trypsin (Life Technologies). The cells were harvested in growth media then spun (1K rpm, 3 minutes) and cryopreserved using Recovery Cell Culture Freezing Media (Gibco Technologies). Cells were stored in liquid nitrogen and thawed a day before the assay.
Prior to the day of the assay, stable M4_CHO cells were thawed and plated on 384 well black walled clear bottom TC treated plates (Greiner Cat #781091) at 12K cells/well using F12/HAM Media supplemented with 10% FBS (Life Technologies) and kept overnight in a humidified atmosphere (5% CO2) at 37° C. The next day, cells were loaded with […] Ca^++ dye (BD Biosciences) using Loading Buffer (HBSS +Ca/+Mg, 20 mM HEPES, 2.5 mM Probenecid) and placed back in cell incubator for a minimum of 1 hour. After incubation, the dye was replaced with 45 μL Assay Buffer (HBSS −Ca/−Mg, 20 mM HEPES, 2.5 mM Probenecid) supplemented with 20 μM ATP (Sigma Aldrich) and kept at room temperature in the dark for 60 minutes before running on a cell imager. The FDSS 7000EX (Hamamatsu) was used to capture Ca^++ traces for a span of 3 minutes from cells treated with 11 point dose of compound in triplicate in order to generate dose response curves in agonist mode. All compounds were serially diluted in DMSO then prepared in Assay Buffer for Ca^++ flux studies. The dose response curves were generated from the average of triplicate wells obtained from each data point and used a non-linear regression of four parameter dose response algorithm. The Percent Activity (PA) was measured to EC100 of Carbachol.

Experiment [2] concerns the target T2, human cloned CHRM3 receptor (M3_CHO cells) (Homo sapiens, UniProt P20309).
T2 construct: expressed in transfected cells; host or cells: CHO-K1
In words: CHRM3 Ca++ Flux Assay (agonist mode, FDSS 7000EX). In kind it is cell-based. Particulars: for M3 FDSS PA: Percent Activity measured to EC100 of Carbachol; for EC50: agonist mode, geometric mean if tested more than once, read-out: M3 FDSS EC50. Here is the method:
as §1
CHO-K1 cells stably expressing the human cloned CHRM3 receptor (M3_CHO cells) were grown and maintained in a monolayer culture with F12/HAM (Life Technologies) supplemented with 10% Fetal Bovine Serum, 1× Pen-Strep, and 0.4 mg/mL Geneticin in a humidified atmosphere (5% CO2) at 37° C. The cultures were grown to 80-9 0% confluency in T150 flasks (Corning) and washed with 1×DPBS and lifted with 0.05% Trypsin (Life Technologies). The cells were then spun (1K rpm, 3 minutes) and frozen using Recovery Cell Culture Freezing Media (Gibco Technologies). Cells were stored in liquid nitrogen and thawed a day before the assay. A similar procedure was used for cells stably expressing the human cloned CHRM5 receptor (M5_CHO).
Prior to the day of the assay, stable M3_CHO or M5_CHO cells were thawed and plated on Greiner 384 well black TC treated plates at 12K cells/well in F12/DMEM supplemented with 10% FBS (Hyclone) and kept overnight in a humidified atmosphere (5% CO2) at 37° C. The next day, cells were loaded with Ca^++ dye (BD Biosciences) using Loading Buffer (HBSS +Ca/+Mg, 20 mM HEPES, 2.5 mM Probenecid) and placed back in cell incubator for a minimum of 1 hour. After incubation, the dye was replaced with Assay Buffer (HBSS −Ca/−Mg, 20 mM HEPES, 2.5 mM Probenecid) and kept at room temperature in the dark before running on cell imager. The FDSS 7000EX (Hamamatsu) was used to acquire Ca^++ traces from cells treated with 11 point dose response of compounds in triplicate in order to generate dose response curves in agonist mode. All compounds were serially diluted in DMSO then prepared in Assay Buffer for Ca^++ flux studies. The dose response curves were generated from the average of triplicate wells obtained from each data point and used a non-linear regression of four parameter dose response algorithm. The Percent Activity (PA) was measured to EC100 of Carbachol.

For orientation: EC50 means the concentration giving half of the maximal effect.

Like-named read-outs stand apart in the source and are kept apart here.

T2 sequence (P20309 whole entry): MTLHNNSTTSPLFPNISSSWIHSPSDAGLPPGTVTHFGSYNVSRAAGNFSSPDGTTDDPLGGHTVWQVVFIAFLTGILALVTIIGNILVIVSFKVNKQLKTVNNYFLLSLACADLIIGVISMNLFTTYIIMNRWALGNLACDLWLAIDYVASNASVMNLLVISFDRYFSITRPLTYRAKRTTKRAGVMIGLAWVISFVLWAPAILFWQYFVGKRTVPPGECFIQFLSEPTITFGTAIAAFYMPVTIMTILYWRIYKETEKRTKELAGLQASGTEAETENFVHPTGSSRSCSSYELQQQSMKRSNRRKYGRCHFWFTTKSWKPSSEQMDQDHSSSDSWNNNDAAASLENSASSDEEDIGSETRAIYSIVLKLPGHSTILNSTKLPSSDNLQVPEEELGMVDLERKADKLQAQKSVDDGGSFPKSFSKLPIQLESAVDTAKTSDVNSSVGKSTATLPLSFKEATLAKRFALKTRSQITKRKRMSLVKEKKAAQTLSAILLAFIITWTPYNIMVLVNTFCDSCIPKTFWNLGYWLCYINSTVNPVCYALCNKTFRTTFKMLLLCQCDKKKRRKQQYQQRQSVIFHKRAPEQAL

With `O[C@H]1CC[C@@H](c2ccccc2C2CCN([C@@H]3CCC4(C3)CN(c3nnco3)C4)CC2)CC1` (single isomer, unassigned) [Example 2N, (1S,4s)-4-(2-(1-((R)-2-(1,3,4-oxadiazol-2-yl)-2-azaspiro[3.4]octan-6-yl)piperidin-4-yl)phenyl)cyclohexan-1-ol or (1R,4r)-4-(2-(1-((R)-2-(1,3,4-oxadiazol-2-yl)-2-azaspiro[3.4]octan-6-yl)piperidin-4-yl)phenyl)cyclohexan-1-ol], in experiment [1], the “M4 FDSS PA” value amounted to 81% and the 50% effective concentration (EC50) was 1 nM. Moreover, in experiment [2], the “M3 FDSS PA” value was determined as 0% and the concentration for a half-maximal effect (EC50) was over 25000 nM.

Regarding `OC1CCC(c2ccccc2C2CCN([C@@H]3CCC4(C3)CN(c3nnco3)C4)CC2)CC1` (single isomer, unassigned) [Example 2O, (1s,4r)-4-(2-(1-((R)-2-(1,3,4-oxadiazol-2-yl)-2-azaspiro[3.4]octan-6-yl)piperidin-4-yl)phenyl)cyclohexan-1-ol or (1r,4r)-4-(2-(1-((R)-2-(1,3,4-oxadiazol-2-yl)-2-azaspiro[3.4]octan-6-yl)piperidin-4-yl)phenyl)cyclohexan-1-ol], in experiment [1], the “M4 FDSS PA” value came to 89% and the half-maximal effective concentration (EC50) was under 0.4 nM. Also, in experiment [2], the “M3 FDSS PA” value is 0% and the EC50 was over 25000 nM.

`O=C(N1CC2(CC[C@@H](N3CCC(c4ccccc4OCCC(F)(F)F)CC3)C2)C1)C1(F)CC1` (single isomer, unassigned) [Example 7AA, (R)-(1-fluorocyclopropyl)(6-(4-(2-(3,3,3-trifluoropropoxy)phenyl)piperidin-1-yl)-2-azaspiro[3.4]octan-2-yl)methanone or (S)-(1-fluorocyclopropyl)(6-(4-(2-(3,3,3-trifluoropropoxy)phenyl)piperidin-1-yl)-2-azaspiro[3.4]octan-2-yl)methanone]: in experiment [1], the “M4 FDSS PA” value was found to be 54% and the EC50 was determined as 11 nM. Moreover, in experiment [2], the “M3 FDSS PA” value was 0% and the EC50 is over 25000 nM.

With `CC(C)(O)CCOc1ccccc1C1CCN([C@@H]2CCC3(C2)CN(C(=O)C2(F)CC2)C3)CC1` (single isomer, unassigned) [Example 7BB, (R)-(1-fluorocyclopropyl)(6-(4-(2-(3-hydroxy-3-methylbutoxy)phenyl)piperidin-1-yl)-2-azaspiro[3.4]octan-2-yl)methanone or (S)-(1-fluorocyclopropyl)(6-(4-(2-(3-hydroxy-3-methylbutoxy)phenyl)piperidin-1-yl)-2-azaspiro[3.4]octan-2-yl)methanone], in experiment [1], the “M4 FDSS PA” value was 38% and the EC50 was found to be 2 nM. In experiment [2], the “M3 FDSS PA” value worked out at 0% and the EC50 is over 25000 nM.

As to `COC(C)(C)CCOc1ccccc1C1CCN([C@@H]2CCC3(C2)CN(C(=O)C2(F)CC2)C3)CC1` (single isomer, unassigned) [Example 7FF, (R)-(1-fluorocyclopropyl)(6-(4-(2-(3-methoxy-3-methylbutoxy)phenyl)piperidin-1-yl)-2-azaspiro[3.4]octan-2-yl)methanone or (S)-(1-fluorocyclopropyl)(6-(4-(2-(3-methoxy-3-methylbutoxy)phenyl)piperidin-1-yl)-2-azaspiro[3.4]octan-2-yl)methanone], in experiment [1], the “M4 FDSS PA” value is reported as 38% and the EC50 amounted to 5 nM. Moreover, in experiment [2], the “M3 FDSS PA” value is given as 0% and the half-maximal effective concentration (EC50) was over 25000 nM.

On to `O=C(N1CC2(CC[C@@H](N3CCC(c4ccccc4OCc4ncccn4)CC3)C2)C1)C1(F)CC1` (single isomer, unassigned) [Example 7M, (R)-(1-fluorocyclopropyl)(6-(4-(2-(pyrimidin-2-ylmethoxy)phenyl)piperidin-1-yl)-2-azaspiro[3.4]octan-2-yl)methanone or (S)-(1-fluorocyclopropyl)(6-(4-(2-(pyrimidin-2-ylmethoxy)phenyl)piperidin-1-yl)-2-azaspiro[3.4]octan-2-yl)methanone], for which, in experiment [1], the “M4 FDSS PA” value was 50% and the EC50 worked out at 1 nM. In addition, in experiment [2], the “M3 FDSS PA” value amounted to 0% and the 50% effective concentration (EC50) is over 25000 nM.

As for `O=C(N1CC2(CC[C@@H](N3CCC(c4ccccc4OCCO)CC3)C2)C1)C1(F)CC1` (single isomer, unassigned) [Example 7N, (R)-(1-fluorocyclopropyl)(6-(4-(2-(2-hydroxyethoxy)phenyl)piperidin-1-yl)-2-azaspiro[3.4]octan-2-yl)methanone or (S)-(1-fluorocyclopropyl)(6-(4-(2-(2-hydroxyethoxy)phenyl)piperidin-1-yl)-2-azaspiro[3.4]octan-2-yl)methanone], in experiment [1], the “M4 FDSS PA” value is reported as 68% and the half-maximal effective concentration (EC50) stood at 1 nM. For the same compound, in experiment [2], the “M3 FDSS PA” value is 0% and the half-maximal effective concentration (EC50) is over 25000 nM.

`O=C(C1COC1)N1CC2(CC[C@H](N3CCC(c4ccccc4OC(F)F)CC3)C2)C1.O=C(O)CC(O)(CC(=O)O)C(=O)O` (single isomer, unassigned) [Example 8E, (S)-(6-(4-(2-(difluoromethoxy)phenyl)piperidin-1-yl)-2-azaspiro[3.4]octan-2-yl)(oxetan-3-yl)methanone or (R)-(6-(4-(2-(difluoromethoxy)phenyl)piperidin-1-yl)-2-azaspiro[3.4]octan-2-yl)(oxetan-3-yl)methanone citrate salt]: in experiment [1] (citrate salt), the “M4 FDSS PA” value is 61% and the concentration for a half-maximal effect (EC50) is 2 nM.

Turning to `O=C(C1COC1)N1CC2(CC[C@H](N3CCC(c4ccccc4OC(F)F)CC3)C2)C1.O=C(O)CC(O)(CC(=O)O)C(=O)O` (single isomer, unassigned) [Example 8F, (S)-(6-(4-(2-(difluoromethoxy)phenyl)piperidin-1-yl)-2-azaspiro[3.4]octan-2-yl)(oxetan-3-yl)methanone or (R)-(6-(4-(2-(difluoromethoxy)phenyl)piperidin-1-yl)-2-azaspiro[3.4]octan-2-yl)(oxetan-3-yl)methanone citrate salt], in experiment [1] (citrate salt), the “M4 FDSS PA” value stood at 10% and the EC50 stood at 1110 nM.
